Reference: US8580762B2, “Substituted purine and 7-deazapurine compounds” (Epizyme, Inc., priority 2010, dated 2013)
Where two headings read alike, the source gives them in different places.

Columns and labels:
[1] = tested on: EOL-1 cells which express an MLL-PTD; assay: In vitro anti-proliferative assay, EOL-1; format: cell-based; settings: Homo sapiens, EOL1, 336 h; EOL-1, MLL-PTD; up to 14 days
Method: (§1) In Vitro Anti-Proliferative Assay. The potency and selectivity of the anti-proliferative activity of the compounds of the present invention were assessed using a panel of MLL-rearranged and non-MLL-rearranged human leukemia cell lines. The MLL-rearranged panel included cell lines derived from ALL, AML and biphenotypic leukemias harboring MLL-AF4, MLL-AF9 or MLL-ENL fusions. These cell lines recruit DOT1L. […] Exponentially growing cells were plated, in triplicate, in 96-well plates at a density of 3×10^4 cells/well in a final volume of 150 μl. […] Anti-proliferative activity was determined by cell viability measurements every 3-4 days for up to 14 days.

Jurkat = assay: In vitro anti-proliferative assay, Jurkat; format: cell-based, human; settings: non-MLL-rearranged, up to 14 days
Method: as §1

HL-60 = assay: In vitro anti-proliferative assay, HL-60; format: cell-based, human; settings: HL-60, non-MLL-rearranged; up to 14 days
Method: as §1

MV4-11 xenograft tumors = assay: In vivo anti-proliferative assay, mouse xenograft model of MLL-rearranged leukemia; parameters: species or system female nude mice; settings: 21 days; for TGI compared to controls: non-statistically significant
Method: (§2) In Vivo Anti-Proliferative Assay. The in vivo anti-tumor activity of the compounds of the present invention were assessed in a mouse xenograft model of MLL-rearranged leukemia. Four groups of 20 (Groups 1, 3, 4 and 5), and one group of 8 (Group 2) female nude mice (average weight of 0.023 kg) bearing MV4-11 xenograft tumors of sizes ranging from 80-120 mm^3 were implanted subcutaneously with minipumps (Alzet Model 2001). Group 1 received vehicle only from the pump. Group 2 received vehicle only from the pump plus ip injections tid (8 hours apart) of vehicle. […] Pumps were designed to last for 7 days and were exchanged twice to give total infusion duration of 21 days exposure. […] Tumor size was measured every 4 days. After 21 days the study was terminated, and mean TGI calculated.

[2] = Plasma levels of Compound 2 in the xenograft study; format: in vivo, female nude mice; settings: female, nude, mouse; for concentration at 21 day: subcutaneous, read-out: average plasma level from the last sampling on day 21
Method: as §2, with “Four” for “In Vivo Anti-Proliferative Assay. The in vivo anti-tumor activity of the compounds of the present invention were assessed in a mouse xenograft model of MLL-rearranged leukemia. Four”

Cmax ([2]; Group 3, ip 20 mg/kg tid plus 112 mg/kg/day minipump, read-out: Cmax after each of the tid ip injections): 4200 to 5000 ng/mL | concentration at 21 day ([2]; Group 4, 112 mg/kg/day minipump): 99 ng/mL | concentration at 21 day ([2]; Group 5, 56 mg/kg/day minipump): 52 ng/mL
Structure (SMILES): CC(C)N(C[C@H]1O[C@@H](n2cnc3c(N)ncnc32)[C@H](O)[C@@H]1O)[C@H]1C[C@@H](CCc2nc3cc(C(C)(C)C)ccc3[nH]2)C1 [Compound 2, (2R,3R,4S,5R)-2-(6-amino-9H-purin-9-yl)-5-((((1r,3S)-3-(2-(5-(tert-butyl)-1H-benzo[d]imidazol-2-yl)ethyl)cyclobutyl)(isopropyl)amino)methyl)tetrahydrofuran-3,4-diol]
IC50 [1]: 11 nM | anti-proliferative activity (Jurkat): no activity | anti-proliferative activity (HL-60): no activity | TGI compared to controls (MV4-11 xenograft tumors; 56 mg/kg/day minipump (Group 5)): 43% | TGI compared to controls (MV4-11 xenograft tumors; 112 mg/kg/day minipump (Group 4)): 38% | TGI compared to the controls (MV4-11 xenograft tumors; Group 3: 112 mg/kg/day minipump plus ip 20 mg/kg tid, total 172 mg/kg/day, statistically significant): > 70%
